Measurements reported in article PMC9585897 (Peptides, 2022).
Entries after “also recorded” stand apart in the source; their conditions may differ. Non-standard residues stand in square brackets, D forms with d. Residues, ends and D or L forms follow the SMILES beside them. Ahx = NCCCCCC(=O)O

How the values were obtained:
[1] = biological target: SARS-CoV-2 Spike-ACE2 interaction (Severe acute respiratory syndrome coronavirus 2, UniProt P0DTC2); assay: ELISA, SARS-CoV-2 Spike-ACE2 Interaction Inhibitor Screening Assay Kit; assay type: biochemical
[2] = test system: rCoV2-RBD (His-Spike S1 Protein, 13–685 aa); assay type: binding, SARS-CoV-2

| Molecule | IC50 [1] [nM] | Competition with ACE2 for binding to CoV2-RBD (in words) ([1]; approximately 13.48 μM of ACE2, ELISA) | Inhibition of the Spike-ACE2 interaction (in words) ([1]; competitive ELISA, BP19 1 to 128 μM in triplicates) | Binding of CoV2-RBD, sliding window array (in words) [2] |
| --- | --- | --- | --- | --- |
| CC[C@H](C)[C@H](NC(=O)[C@H](Cc1ccccc1)NC(=O)[C@H](CCCCN)NC(=O)[C@H](CC(=O)O)NC(=O)[C@H](CC(C)C)NC(=O)[C@H](Cc1ccccc1)NC(=O)[C@@H](NC(=O)[C@H](CCCCN)NC(=O)[C@H](C)NC(=O)[C@H](CCC(N)=O)NC(=O)[C@H](CCC(=O)O)NC(=O)[C@H](CCC(=O)O)NC(=O)[C@@H](NC(=O)[C@@H](NC(=O)[C@H](CO)NC(=O)[C@H](CCC(N)=O)NC(=O)[C@H](C)NC(=O)[C@H](C)NC(=O)[C@@H](NC(=O)[C@@H](NC(=O)[C@H](C)NC(=O)[C@@H](NC(=O)[C@H](CC(C)C)NC(=O)[C@@H](N)CO)C(C)C)C(C)C)[C@@H](C)O)[C@@H](C)O)[C@@H](C)CC)[C@@H](C)O)C(=O)NCCCCCC(=O)N[C@@H](Cc1c[nH]c2ccccc12)C(N)=O [BP19] (H-SLVAVTAAQSTIEEQAKTFLDKFI[Ahx]W-NH2; N-terminus assumed) | 2080 ± 380 | able to outcompete the natural ACE2 at lower than equimolar concentrations; also recorded: outcompeted 13.48 μM of ACE2 for binding to the CoV2-RBD | dose-responsive; also recorded: inhibitory of the Spike-ACE2 interaction in vitro |  |
| SLVAVTAAQSTIEEQAKTFLDKFN [9 ^N] |  |  |  | bound the CoV2-RBD the strongest; also recorded: bound the CoV2-RBD with the greatest intensity |
